The values below come from US8907110B2, “Benzodioxepin-3-one compounds as dyes or as fluorescent emitters” (Merck Patent GmbH, priority 2011, dated 2014).

Format in all cases: physicochemical
Data set [1] in a line: Absorption strength (absorption spectrum in ethanol). The conditions noted are these: for λmax: absorption maximum, dilute solution; for λmax / Half-value width / intense absorption up to / spectral range covered compared with curcumin and beta-carotene: in ethanol; for E1 % value: extinction at the absorption maximum extrapolated to a concentration of 1 g/100 ml, ethanol; for Half-value width: half-value width of the absorption band. Here is the method: The measure used for the absorption strength is the so-called E1% value, and the half-value width of the absorption band in relation to the absorption maximum λmax indicated. The E1% value indicates the extinction at the absorption maximum extrapolated to a concentration of 1 g/100 ml. To this end, an absorption spectrum of the substance in ethanol is recorded in dilute solution. The values are compared with the reference spectra of curcumin and beta-carotene.

Data set [2] can be described thus: Thermal stability by thermographic method (TGA). The conditions noted are these: for Temperature at which 98% of the weight was still present: TGA, RT to 800° C., heating rate 10 K/min. The method, then: The thermal stability is determined with the aid of the thermographic method (instrument TGA Q5000 V3.10 Build 258, temperature range RT to 800° C., heating rate 10 K/min).

The nature of data set [3]: Fluorescence measurements in ethanol. The conditions noted are these: 0.00804-0.00820 mg/ml, cell thickness 1 cm. Here is the method: The substance concentrations in ethanol indicated in the table are measured using an Aminco Bowman 2 fluorescence spectrometer (cell thickness 1 cm; excitation 220-600 nm; emission 220-800 nm; spectral gap width (excitation) 4 nm, (emission) 8 nm; recording speed 10 nm/min; step width (excitation) 5 nm, (emission) 4 nm.

Data set [4] in a line: Solubility determination in phenethyl benzoate (X-Tend 226). The method, then: The solubility determination was carried out in phenethyl benzoate (X-Tend 226): […]

With `CC1=C(/C=C/C(C)=C/C=C/C(C)=C/C=C/C=C(C)/C=C/C=C(C)/C=C/C2=C(C)CCCC2(C)C)C(C)(C)CCC1` [Beta-carotene, beta-carotene, reference compound], in data set [1], the λmax turned out to be 453 nm, the E1 % value is listed as 408 and the Half-value width entry is listed as “approx. 88 nm”. Besides, in data set [2], the “Temperature at which 98% of the weight was still present” value was determined as 84 °C.

`COc1cc(/C=C/C(=O)CC(=O)/C=C/c2ccc(O)c(OC)c2)ccc1O` [Curcumin, curcumin, reference compound]: in data set [1], the λmax was determined as 426 nm, the E1 % value is 1507 and the Half-value width entry is given as “approx. 78 nm”. In data set [2], the “thermal stability (in words)” value is listed as “not thermally stable” and the “Temperature at which 98% of the weight was still present” value worked out at 223 °C.

`COc1cc(OC)c(OC)cc1/C=C1\Oc2ccc(C)cc2O/C(=C\c2cc(OC)c(OC)cc2OC)C1=O` [Example 1, 7-methyl-2,4-bis[1-(2,4,5-trimethoxyphenyl)meth-(Z)-ylidene]benzo[b]-1,4-dioxepin-3-one]: in data set [1], the λmax worked out at 437 nm, the E1 % value is recorded as 505, the Half-value width entry is listed as “approx. 102 nm” and the “intense absorption up to” value is reported as “up to 539 nm”. Besides, the “spectral range covered compared with curcumin and beta-carotene” value in data set [1] is recorded as “significantly greater spectral range”. In data set [2], the “thermal stability (in words)” value was “excellent” and the “Temperature at which 98% of the weight was still present” value came to 281 °C. Further, the Emission in data set [3] is on record as 412 nm. Moreover, the “Solubility in X-Tend 226” value in data set [4] came to 2.2%.

Turning to `COc1ccc(/C=C2\Oc3ccc(C)cc3O/C(=C\c3ccc(OC)cc3)C2=O)cc1` [Example 2, 2,4-bis[1-(4-methoxyphenyl)meth-(Z)-ylidene]-7-methylbenzo[b]-1,4-dioxepin-3-one], the “intense absorption up to” value in data set [1] is given as “up to 478 nm”.

For `COc1ccc(/C=C2\Oc3ccc(C)cc3O/C(=C\c3ccc(OC)c(OC)c3)C2=O)cc1OC` [Example 3, 2,4-bis[1-(3,4-dimethoxyphenyl)-meth-(Z)-ylidene]-7-methylbenzo[b]-1,4-dioxepin-3-one], in data set [1], the λmax amounted to 369 nm; the E1 % value is reported as 515; the Half-value width entry is listed as “approx. 100 nm”; the “spectral range covered compared with curcumin and beta-carotene” value is on record as “significantly greater spectral range”. In data set [2], the “thermal stability (in words)” value is given as “excellent” and the “Temperature at which 98% of the weight was still present” value amounted to 286 °C. In data set [3], the Emission came out at 322 nm and the Excitation is on record as 230 nm. For the same compound, the “Solubility in X-Tend 226” value in data set [4] is given as 4.5%.

With `CCCCN(CCCC)c1ccc(/C=C2\Oc3ccc(C)cc3O/C(=C\c3ccc(N(CCCC)CCCC)cc3)C2=O)cc1` [Example 8, 7-methyl-2,4-bis[1-(4-dibutylaminophenyl)meth-(Z)-ylidene]benzo[b]-1,4-dioxepin-3-one], in data set [1], the λmax worked out at 484 nm, the E1 % value was 571, the Half-value width entry is on record as “approx. 122 nm” and the “intense absorption up to” value is given as “up to 609 nm”. In addition, the “spectral range covered compared with curcumin and beta-carotene” value in data set [1] is “significantly greater spectral range”. In data set [2], the “thermal stability (in words)” value is listed as “excellent” and the “Temperature at which 98% of the weight was still present” value came to 250 °C. In data set [3], this compound had an Emission of 320 nm and an Excitation of 260 nm. Besides, the “Solubility in X-Tend 226” value in data set [4] is given as 5.0%.
